The results in this text go back to US11957735B2, “Releasable GLP-1 conjugates” (QuiaPEG Pharmaceuticals AB, priority 2018, dated 2024).

In general, half-life refers to the time needed for the level to fall by half in the phase considered. Read a high half-life as slow loss.

The structures appear in SMILES notation.

This series in a line: pH-triggered hydrolysis (T1/2) in TRIS buffer at 37° C., HPLC with AZT internal reference. Type of series: physicochemical. As to conditions: pH 8, hydrolysis of aminouridine carbamate, process of Example 1. The procedure:
In the following experiment, the T1/2 at pH 8 is calculated to be approx. 11 h, which translates to 44 h at pH 7.4 (factor 4×). ˜1 mg conjugate was dissolved in a volume of 20% MeCN in water. An appropriate amount of azidothymidine (AZT) was added as an internal reference and the hydrolysis was started by addition of a volume of 0.3 M TRIS buffer solution at pH 8.0. The reaction mixture was then kept at 37° C. 30 μL aliquots were taken at each time point and acidified by addition of 20 μL 1 M AcOH before injection to HPLC.

Molecule `O=C(NC1C(O)[C@@H](CO)O[C@H]1n1ccc(=O)[nH]c1=O)OCC(c1ccccc1)c1ccccc1` (stereo partly shown) [compound 1] showed a half-life of 12 days.
